From patent US20230324373A1, “PYRUVIC ACID OPTICAL PROBE, PREPARATION METHOD THEREFOR, AND APPLICATION THEREOF” (East China University of Science and Technology, priority 2020, published 2023)

Key:
[1] = titration curve of pyruvate optical sensor (concentration gradient pyruvate detection); type: binding; conditions: for change of the ratio of fluorescence intensity at 528 nm after excitation at 420 nm and at 485 nm: pyruvate concentration gradient; for Kd: ratio of fluorescence at 528 nm, excitation 420 nm and 485 nm, read-out: Kd (binding constant)
Experimental: 6. Take 100 μl of 1 μM protein solution, incubate at 37° C. for 5 minutes, add pyruvate for titration, and measure the fluorescence intensity of the protein emitted at 528 nm after fluorescence excitation at 485 nm. The fluorescence excitation and emission measurement of the samples were completed by a multifunctional fluorescence microplate reader.

[2] = specificity of purified pyruvate optical sensors; type: biochemical; conditions: purified sensor
[3] = fluorescence spectra of purified sensor treated with 0 mM and 10 mM pyruvate; type: biochemical; conditions: 10 minutes
Experimental: 7. Take 100 μl of 1 μM protein solution, incubate at 37° C. for 5 minutes, add pyruvate, and measure the absorption and fluorescence spectra of the protein. The determination of the absorption spectrum and fluorescence spectrum of the sample is completed by a spectrophotometer and a fluorescence spectrophotometer.
Exemplarily, after the purified pyruvate optical sensor PdhR(96-254)-192/194-M194V-cpYFP was treated with 0 mM and 10 mM pyruvate for 10 minutes, respectively, the fluorescence spectrum was detected using a fluorescence spectrophotometer.
Determination of excitation spectra: Excitation spectra were recorded with an excitation range of 350 nm to 500 nm and an emission wavelength of 530 nm, with readings every 5 nm.
Determination of emission spectra: excitation spectra were recorded with an fixed excitation wavelength of 420 nm and 490 nm and an emission range of 505-600 nm, read every 5 nm.

Substance	Kd [1]	change of the ratio of fluorescence intensity at 528 nm after excitation at 420 nm and at 485 nm [1]	specificity [2]	fluorescence intensity excited at 420 nm relative to 0 mM pyruvate [3]	fluorescence intensity excited at 490 nm relative to 0 mM pyruvate [3]
141/143-S190T/R191Q/R192E: cpYFP at 141/143 of PdhR(96-254), mutations S190T/R191Q/R192E	186 µM	2.7 times	–	–	–
141/143-S 190L/R191V: cpYFP at 141/143 of PdhR(96-254), mutations S190L/R191V	185 µM	4.2 times	–	–	–
192/194-M194V-S190E/R191N/R192D: cpYFP at 192/194 of PdhR(96-254), mutations M194V/S190E/R191N/R192D	1070 µM	13.1 times	good specificity	–	–
192/194-M194V: cpYFP at 192/194 of PdhR(96-254), mutation M194V (family SEQ ID NO: 22; coding sequence SEQ ID NO: 31)	475 µM	9.7 times	good specificity	0.6 times	5.8 times
192/195: optical sensor with cpYFP inserted at site 192/195 of PdhR(96-254)	19900 µM	8.3 times	–	–	–
PdhR(96-254)-192/194-M194V/S190D/R191Y/R192T-cpYFP: cpYFP at 192/194 of PdhR(96-254), mutations M194V/S190D/R191Y/R192T	–	–	good specificity	–	–

The next lines start with results.

Kd [1]	Substance	change of the ratio of fluorescence intensity at 528 nm after excitation at 420 nm and at 485 nm [1]	specificity [2]	fluorescence intensity excited at 420 nm relative to 0 mM pyruvate [3]	fluorescence intensity excited at 490 nm relative to 0 mM pyruvate [3]
164 µM	141/143-R191S/R192T: cpYFP at 141/143 of PdhR(96-254), mutations R191S/R192T	3.9 times	–	–	–
84 µM	141/143-S190P/R191H/R192P: cpYFP at 141/143 of PdhR(96-254), mutations S190P/R191H/R192P	3.2 times	–	–	–
158 µM	141/143-S190R/R191S/R192P: cpYFP at 141/143 of PdhR(96-254), mutations S190R/R191S/R192P	3.1 times	–	–	–
28 µM	141/143: optical sensor with cpYFP inserted at site 141/143 of PdhR(96-254)	2.0 times	good specificity	–	–
